Measured values from ChEMBL document CHEMBL5120868, “Tuaimenal A, a Meroterpene from the Irish Deep-Sea Soft Coral Duva florida, Displays Inhibition of the SARS-CoV-2 3CLpro Enzyme” (J Nat Prod, 2022).

How the values were obtained:
[1] = biological target: Replicase polyprotein 1ab (Severe acute respiratory syndrome coronavirus 2) (UniProt P0DTD1); assay: Inhibition of recombinant SARS-CoV-2 3CLpro expressed in Escherichia coli BL21 at 20 uM using LGSAVLQ-rhodamine 110-dp as fluorogenic substrate preincubated for 15 mins followed by substrate addition by spectrophotometry analysis relative to control
[2] = biological target: Replicase polyprotein 1ab (Severe acute respiratory syndrome coronavirus 2, UniProt P0DTD1); assay: Inhibition of recombinant SARS-CoV-2 3CLpro expressed in Escherichia coli BL21 using LGSAVLQ-rhodamine 110-dp as fluorogenic substrate preincubated for 15 mins followed by substrate addition by spectrophotometry analysis
[3] = biological target: Replicase polyprotein 1ab (Severe acute respiratory syndrome coronavirus 2) (UniProt P0DTD1); assay: Inhibition of recombinant SARS-CoV-2 3CLpro expressed in Escherichia coli BL21 at […] using LGSAVLQ-rhodamine 110-dp as fluorogenic substrate preincubated for 15 mins followed by substrate addition by spectrophotometry analysis relative to control

Compound | inhibition [1] | IC50 [2] | inhibition [3]
CC(C)=CCC/C(C)=C/CC[C@]1(C)C=Cc2c(C=O)c(O)c(C)c(O)c2O1 | 40% | 21 µM | –
NCCc1ccc(S(=O)(=O)F)cc1 | – | – | 100%
